Experimental data published in patent US20260374754A1, “N-((ISOQUINOLIN-6-YL)METHYL)-1H-PYRAZOLE-4-CARBOXAMIDE DERIVATIVES AS PLASMA KALLIKREIN INHIBITORS FOR THE TREATMENT OF HEREDITARY ANGIODEMA” (Takeda Pharmaceutical Company Limited, priority 2022, published 2026).
Structures can show the parent of a compound that is named as a salt.

Legend:
plasma kallikrein = biological target: T1, plasma kallikrein (Homo sapiens, UniProt P03952); test: Neat Human Plasma Assay (Fluorogenic Peptide), contact pathway-activated (FXIIa) plasma; format: biochemical; conditions: human citrated plasma 78% final; 10 nM human FXIIa; PFR-AMC substrate; 5 minutes; room temperature
T1 construct: PFR-AMC substrate
Procedure: To analyze inhibition of plasma kallikrein in an ex vivo setting, the potency of compounds was measure in contact pathway-activated plasma assays. In a fluorogenic peptide substrate assay, test compounds dissolved in DMSO were added to sodium citrate collected human or rat plasma in a 96-well microplate. Alternatively, citrated plasma was collected from rats administered the compounds orally or by IV. 10 nM of human FXIIa (Enzyme Research Laboratories) diluted in PKa buffer (20 mM Tris-HCl, pH 7.5, 150 mM NaCl, 1 mM EDTA, 0.1% PEG-8000, and 0.1% Triton X-100) was added to the plasma, followed by the […] of the profluorescent, synthetic plasma kallikrein substrate PFR-AMC (also diluted in PKa buffer). Final plasma concentration in the reaction was 78%. Fluorescence was immediately monitored by excitation/emission wavelengths of 360 nm/480 nm respectively over a period of 5 minutes in a microplate reader. The resulting linear increase in fluorescence emission (reflecting PKa proteolysis of PFR-AMC substrate) was fit to extract a proteolytic rate (fluorescent units over time), and this rate was subsequently plotted against compound inhibitor concentration. Resulting plots were fit to a standard 4-parameter IC50/IC90 equation to determine min/max values, IC50/90, and slope. All experimental steps were performed at room temperature.

[1] = biological target: human activated kallikrein enzyme (Homo sapiens, UniProt P03952); test: Inhibition of human activated plasma kallikrein, fluorogenic PFR-AMC substrate, 500 pM enzyme format; format: biochemical; conditions: 500 pM activated kallikrein; 300 μM PFR-AMC; 30 min preincubation; 10 min room temperature; pH 7.5; read-out: Primary Dose Response Assay: Average EC50
How it was run: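 500 pM activated kallikrein preincubated 30 min at room temperature with inhibitors in pH 7.5 Tris/EDTA/NaCl buffer with PEG-400 and Triton X-100. Reaction started with 300 μM PFR-AMC, run 10 min at room temperature; AMC fluorescence read at ex 380/em 460 nm.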

Chain of human activated kallikrein enzyme (P03952 391-638 limits assumed): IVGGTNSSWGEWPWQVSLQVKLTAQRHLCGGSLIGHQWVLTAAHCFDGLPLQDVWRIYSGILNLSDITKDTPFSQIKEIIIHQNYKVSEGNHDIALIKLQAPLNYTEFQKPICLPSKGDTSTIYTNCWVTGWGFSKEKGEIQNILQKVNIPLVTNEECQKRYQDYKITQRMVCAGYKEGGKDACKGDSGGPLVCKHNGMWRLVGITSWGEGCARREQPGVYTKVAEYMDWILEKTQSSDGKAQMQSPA
Chain of human activated kallikrein enzyme (P03952 20-390 partner limits assumed): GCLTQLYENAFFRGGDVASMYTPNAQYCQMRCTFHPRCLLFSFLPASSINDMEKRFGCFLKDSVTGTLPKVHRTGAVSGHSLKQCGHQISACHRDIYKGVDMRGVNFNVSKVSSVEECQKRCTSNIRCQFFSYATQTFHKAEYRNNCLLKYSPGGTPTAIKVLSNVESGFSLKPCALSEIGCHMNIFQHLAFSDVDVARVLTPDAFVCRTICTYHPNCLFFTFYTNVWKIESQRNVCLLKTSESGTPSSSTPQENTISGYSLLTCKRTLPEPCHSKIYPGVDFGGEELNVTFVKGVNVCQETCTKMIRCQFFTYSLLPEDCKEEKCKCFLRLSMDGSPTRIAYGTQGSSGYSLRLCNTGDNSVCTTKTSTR
T1 sequence (P03952 20-638): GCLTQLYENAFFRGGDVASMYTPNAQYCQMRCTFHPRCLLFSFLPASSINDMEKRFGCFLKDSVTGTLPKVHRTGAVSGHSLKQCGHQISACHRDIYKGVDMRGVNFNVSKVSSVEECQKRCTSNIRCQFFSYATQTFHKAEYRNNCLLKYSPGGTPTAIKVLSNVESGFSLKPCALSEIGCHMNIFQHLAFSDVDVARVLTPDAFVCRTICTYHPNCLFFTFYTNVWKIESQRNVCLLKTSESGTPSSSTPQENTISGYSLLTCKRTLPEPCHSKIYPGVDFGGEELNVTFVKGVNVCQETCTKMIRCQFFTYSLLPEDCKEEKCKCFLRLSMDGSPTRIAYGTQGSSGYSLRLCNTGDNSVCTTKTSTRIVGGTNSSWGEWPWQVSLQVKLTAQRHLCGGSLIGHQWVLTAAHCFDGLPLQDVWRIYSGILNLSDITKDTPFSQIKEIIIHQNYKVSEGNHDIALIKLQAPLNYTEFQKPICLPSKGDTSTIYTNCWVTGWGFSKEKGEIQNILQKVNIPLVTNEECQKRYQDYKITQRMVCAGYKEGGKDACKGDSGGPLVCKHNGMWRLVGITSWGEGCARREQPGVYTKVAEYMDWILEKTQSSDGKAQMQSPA

Structure (SMILES)	IC90 (plasma kallikrein) [nM]	EC50 [1] [nM]
Cc1cc2c(N)nccc2c(C)c1CNC(=O)c1cn(Cc2ccc(N3CCCC3)nc2)nc1C(F)(F)F [Example 194, N-((1-amino-5,7-dimethylisoquinolin-6-yl)methyl)-1-((6-(pyrrolidin-1-yl)pyridin-3-yl)methyl)-3-(trifluoromethyl)-1H-pyrazole-4-carboxamide]	> 5000	1 to 10
Cc1cc2c(N)nccc2c(C)c1CNc1cc(OCc2ccc3ncc(Cl)cc3c2)ncn1 [Example 373, 6-(((6-((3-chloroquinolin-6-yl)methoxy)pyrimidin-4-yl)amino)methyl)-5,7-dimethylisoquinolin-1-amine formic acid salt]	> 5000	1 to 10
Cc1cc2c(N)nccc2c(C)c1CNc1cc(NCc2ccc(Cn3ccccc3=O)cc2)cnn1 [Example 236, 1-(4-(((6-(((1-amino-5,7-dimethylisoquinolin-6-yl)methyl)amino)pyridazin-4-yl)amino)methyl)benzyl)pyridin-2(1H)-one]	≤ 1000	< 1
Cc1cc2c(N)nccc2c(C)c1CNc1cc(OCc2cn3cc(C4CC4)ccc3n2)ncn1 [Example 305, 6-(((6-((6-cyclopropylimidazo[1,2-a]pyridin-2-yl)methoxy)pyrimidin-4-yl)amino)methyl)-5,7-dimethylisoquinolin-1-amine]	> 5000	< 1
Cc1cc2c(N)nccc2c(C)c1CNc1cc(OCc2cn3cc(C4CC4)ccc3n2)c(Cl)cn1 [Example 280, 6-(((5-chloro-4-((6-cyclopropylimidazo[1,2-a]pyridin-2-yl)methoxy)pyridin-2-yl)amino)methyl)-5,7-dimethylisoquinolin-1-amine]	> 5000	1 to 10
Cc1cc2c(N)nccc2c(C)c1CNc1cc(SCc2cn3cc(C4CC4)ccc3n2)ncn1 [Example 290, 6-(((6-(((6-cyclopropylimidazo[1,2-a]pyridin-2-yl)methyl)thio)pyrimidin-4-yl)amino)methyl)-5,7-dimethylisoquinolin-1-amine]	1000 to 5000	< 1
Cc1cc2c(N)nccc2c(C)c1CNc1nccn2nc(Cc3cn4cc(C5CC5)ccc4n3)nc12 [Example 498, 6-(((2-((6-cyclopropylimidazo[1,2-a]pyridin-2-yl)methyl)-[1,2,4]triazolo[1,5-a]pyrazin-8-yl)amino)methyl)-5,7-dimethylisoquinolin-1-amine]	1000 to 5000	1 to 10
Cc1cc2c(N)nccc2c(C)c1CNc1cc(OCc2cc3cc(C4CC4)cc(CC(C)(C)C(N)=O)n3n2)ncn1 [Example 509, 3-(2-(((6-(((1-amino-5,7-dimethylisoquinolin-6-yl)methyl)amino)pyrimidin-4-yl)oxy)methyl)-5-cyclopropylpyrazolo[1,5-a]pyridin-7-yl)-2,2-dimethylpropanamide]	1000 to 5000	< 1
Cc1cc2c(N)nccc2c(C)c1CNc1nccc2nn(Cc3cn4cc(C5CC5)ccc4n3)cc12 [Example 267, 6-(((2-((6-cyclopropylimidazo[1,2-a]pyridin-2-yl)methyl)-2H-pyrazolo[4,3-c]pyridin-4-yl)amino)methyl)-5,7-dimethylisoquinolin-1-amine]	≤ 1000	< 1
Cc1cc2c(N)nccc2c(C)c1CNC(=O)c1cnn(Cc2ccc(Cn3ccccc3=O)cc2)c1 [Example 192, N-((1-amino-5,7-dimethylisoquinolin-6-yl)methyl)-1-(4-((2-oxopyridin-1(2H)-y1)methyl)benzyl)-1H-pyrazole-4-carboxamide]	≤ 1000	< 1
Cc1cc2c(N)nccc2c(C)c1CNc1cc(NCc2ccc(Cn3cccn3)cc2)ncn1 [Example 340, N^4-(4-((1H-pyrazol-1-yl)methyl)benzyl)-N^6-((1-amino-5,7-dimethylisoquinolin-6-yl)methyl)pyrimidine-4,6-diamine]	> 5000	< 1
Cc1cc2c(N)nccc2c(C)c1CNC(=O)c1cnn(Cc2ccc3ncc(Cl)cc3c2)c1 [Example 89, N-((1-amino-5,7-dimethylisoquinolin-6-yl)methyl)-1-((3-chloroquinolin-6-yl)methyl)-1H-pyrazole-4-carboxamide]	≤ 1000	< 1
Cc1cc2c(N)nccc2c(C)c1CNC(=O)c1ccnc(Cc2cn3cc(C4CC4)ccc3n2)c1 [Example 514, N-((1-amino-5,7-dimethylisoquinolin-6-yl)methyl)-2-((6-cyclopropylimidazo[1,2-a]pyridin-2-yl)methyl)isonicotinamide]	≤ 1000	< 1
Cc1cc2c(N)nccc2c(C)c1CNc1cc2c(cn1)nnn2Cc1cn2cc(C3CC3)ccc2n1 [Example 501, 6-(((1-((6-cyclopropylimidazo[1,2-a]pyridin-2-yl)methyl)-1H-[1,2,3]triazolo[4,5-c]pyridin-6-yl)amino)methyl)-5,7-dimethylisoquinolin-1-amine]	≤ 1000	< 1
Cc1cc2c(N)nccc2c(C)c1CNc1cc(OCc2ccc3ncc(C4CC4)cc3c2)ccn1 [Example 239, 6-(((4-((3-cyclopropylquinolin-6-yl)methoxy)pyridin-2-yl)amino)methyl)-5,7-dimethylisoquinolin-1-amine]	> 5000	1 to 10
Cc1cc2c(N)nccc2c(C)c1CNc1cc2c(cn1)ncn2Cc1cc2cc(C3CC3)cnc2s1 [Example 504, 6-(((1-((5-cyclopropylthieno[2,3-b]pyridin-2-yl)methyl)-1H-imidazo[4,5-c]pyridin-6-yl)amino)methyl)-5,7-dimethylisoquinolin-1-amine]	≤ 1000	< 1
Cc1cc2c(N)nccc2c(C)c1CNc1cc(OCc2cc3cc(C4CC4)cc(CC(C)(C)C#N)n3n2)ncn1 [Example 510, 3-(2-(((6-(((1-amino-5,7-dimethylisoquinolin-6-yl)methyl)amino)pyrimidin-4-yl)oxy)methyl)-5-cyclopropylpyrazolo[1,5-a]pyridin-7-yl)-2,2-dimethylpropanenitrile]	1000 to 5000	1 to 10
Cc1cc2c(N)nccc2c(C)c1CNc1cc(N2C[C@@H](O)C[C@@H]2c2cn3cc(C4CC4)ccc3n2)ncn1 [Example 513, (3S,5R)-1-(6-(((1-amino-5,7-dimethylisoquinolin-6-yl)methyl)amino)pyrimidin-4-yl)-5-(6-cyclopropylimidazo[1,2-a]pyridin-2-yl)pyrrolidin-3-ol]	≤ 1000	< 1
Cc1cc2c(N)nccc2c(C)c1CNc1cc(NCc2ccc3ncc(C4CC4)cc3c2)ncn1 [Example 314, N^4-((1-amino-5,7-dimethylisoquinolin-6-yl)methyl)-N^6-((3-cyclopropylquinolin-6-yl)methyl)pyrimidine-4,6-diamine]	1000 to 5000	< 1
Cc1cc2c(N)nccc2c(C)c1CNc1cc2c(ccn2Cc2ccc(Cn3cccn3)cc2)nn1 [Example I-457, 6-(((5-(4-((1H-pyrazol-1-yl)methyl)benzyl)-5H-pyrrolo[3,2-c]pyridazin-3-yl)amino)methyl)-5,7-dimethylisoquinolin-1-amine]	≤ 1000	< 1
Cc1cnc2ccc(COc3cnnc(NCc4c(C)cc5c(N)nccc5c4C)c3)cc2c1 [Example 416, 5,7-dimethyl-6-(((5-((3-methylquinolin-6-yl)methoxy)pyridazin-3-yl)amino)methyl)isoquinolin-1-amine]	1000 to 5000	< 1
Cc1cc2c(N)nccc2c(C)c1CNc1cc(NCc2ccc(Cn3cccn3)cc2)c(C(F)(F)F)nn1 [Example 451, N^5-(4-((1H-pyrazol-1-yl)methyl)benzyl)-N^3-((1-amino-5,7-dimethylisoquinolin-6-yl)methyl)-6-(trifluoromethyl)pyridazine-3,5-diamine]	1000 to 5000	< 1
Cc1ccc2cc(COc3cc(NCc4c(C)cc5c(N)nccc5c4C)ncn3)ccc2n1 [Example 371, 5,7-dimethyl-6-(((6-((2-methylquinolin-6-yl)methoxy)pyrimidin-4-yl)amino)methyl)isoquinolin-1-amine]	1000 to 5000	1 to 10
